assay: method code SF-AS, from DOI: 10.1002/jps.2600820804

Row | logP | SMILES
1 | 2.45 | CCc1cccc(OC(C)=O)c1
2 | 2.7 | COC(=O)c1ccc(C)cc1
3 | 2.74 | COC(=O)c1ccccc1I
4 | 2.42 | COC(=O)c1c(F)cccc1Cl
5 | 2.95 | COC(=O)c1ccc(Br)cc1
6 | 2.85 | COC(=O)c1cccc(Cl)c1
7 | 2.21 | Cc1cccc(C)c1C(=O)O
8 | 2.04 | COC(=O)c1ccccc1OC
9 | 2.77 | COC(=O)c1cccc(C)c1
10 | 2.55 | COC(=O)c1c(C)cccc1C
11 | 1.66 | COC(=O)c1ccccc1[N+](=O)[O-]
12 | 2.79 | COC(=O)c1c(Cl)cccc1Cl
13 | 2.28 | COC(=O)c1ccc(F)cc1
14 | 2.21 | COC(=O)c1c(Cl)cccc1[N+](=O)[O-]
15 | 1.89 | COC(=O)c1cccc([N+](=O)[O-])c1
16 | 1.82 | COC(=O)c1ccccc1F
17 | 1.61 | COc1cccc(OC(C)=O)c1
18 | 1.96 | COC(=O)c1c(F)cccc1F
19 | 1.94 | COC(=O)c1ccc([N+](=O)[O-])cc1
20 | 2.32 | CC(=O)Oc1c(C)cccc1C

The remaining lines, values behind:

Row | SMILES | logP
21 | CSc1ccccc1C(N)=O | 0.71
22 | NC(=O)c1ccccc1[N+](=O)[O-] | -0.12
23 | Cc1cccc(Cl)c1C(=O)O | 2.31
24 | O=C(O)c1c(Cl)cccc1[N+](=O)[O-] | 1.56
25 | O=C(O)c1c(Br)cccc1Br | 3.58
26 | CCc1cccc(CC)c1O | 3.03
27 | Oc1c(F)cccc1F | 1.96
28 | CC(=O)Oc1c(Cl)cccc1Cl | 2.94
29 | O=C(O)c1c(F)cccc1F | 1.59
30 | O=C(O)c1c(F)cccc1Cl | 2.11
31 | Cc1cccc(Cl)c1O | 2.8
32 | CCOc1cccc(OC(C)=O)c1 | 2.08
33 | N#Cc1ccccc1C(N)=O | 0
34 | CCc1cccc(CC)c1OC(C)=O | 3.4
35 | Oc1c(Br)cccc1Br | 3.36

— the SangsterLogP compilation
